Like-named read-outs stand apart in the source and are kept apart here.
Experiments:
in vitro [1] = details: rat, microsomes, pH 7.4
SARS-CoV-1 Mpro = SARS-CoV-1 Mpro (Severe acute respiratory syndrome coronavirus (SARS-CoV), UniProt P0C6X7); format: biochemical
[2] = test system: SARS-CoV-2 (strain USA-WA1/2020); assay: microbe, parasite or virus in culture; format: cell-based
229E Mpro = 229E Mpro (Human coronavirus 229E (HCoV-229E), UniProt P0C6X1); format: biochemical
in vitro [3] = details: PAMPA
SARS-CoV-2 Mpro = SARS-CoV-2 Mpro (Severe acute respiratory syndrome coronavirus 2 (2019-nCoV) (SARS-CoV-2), UniProt P0DTD1); format: biochemical
in vitro [4] = details: human, microsomes, pH 7.4
OC43 Mpro = OC43 Mpro (Human coronavirus OC43 (HCoV-OC43), UniProt P0C6X6); format: biochemical
OC43 Mpro, sequence (P0C6X6 3247-3549 limits assumed): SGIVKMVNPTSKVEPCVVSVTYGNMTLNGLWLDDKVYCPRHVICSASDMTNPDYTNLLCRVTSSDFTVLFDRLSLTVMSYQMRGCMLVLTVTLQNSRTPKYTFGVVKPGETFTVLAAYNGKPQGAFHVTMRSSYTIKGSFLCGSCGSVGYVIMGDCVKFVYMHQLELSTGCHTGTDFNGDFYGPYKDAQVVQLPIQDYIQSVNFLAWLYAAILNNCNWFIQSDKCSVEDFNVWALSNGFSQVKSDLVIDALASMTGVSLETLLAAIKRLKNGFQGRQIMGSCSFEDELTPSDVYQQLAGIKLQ

MERS Mpro = MERS Mpro (Middle East respiratory syndrome-related coronavirus (isolate United Kingdom/H123990006/2012) (MERS-CoV) (Betacoronavirus England 1), UniProt K9N7C7); assay: biochemical
MERS Mpro, sequence (K9N7C7 3248-3553 limits assumed): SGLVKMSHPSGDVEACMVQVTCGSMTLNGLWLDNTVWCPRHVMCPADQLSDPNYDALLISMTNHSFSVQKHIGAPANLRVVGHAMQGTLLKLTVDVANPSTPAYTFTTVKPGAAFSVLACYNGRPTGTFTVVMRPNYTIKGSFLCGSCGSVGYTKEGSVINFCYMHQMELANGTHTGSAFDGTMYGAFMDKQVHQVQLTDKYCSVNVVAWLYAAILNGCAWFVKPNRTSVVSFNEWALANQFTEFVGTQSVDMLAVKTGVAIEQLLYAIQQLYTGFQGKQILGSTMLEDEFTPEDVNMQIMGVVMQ

OC43 virus = assay: microbe, parasite or virus in culture; format: cell-based; details: Betacoronavirus 1, OC43, Huh-7, read-out: Antiviral OC43 EC50 (μM)
229E virus = assay: organism not typed; format: cell-based; details: Huh-7, read-out: Antiviral 229E EC50 (μM)
[5] = Severe acute respiratory syndrome coronavirus 2, HeLa-ACE2 cells, read-out: Antiviral CoV-2 EC50

229E Mpro, sequence (P0C6X1 2966-3267 limits assumed): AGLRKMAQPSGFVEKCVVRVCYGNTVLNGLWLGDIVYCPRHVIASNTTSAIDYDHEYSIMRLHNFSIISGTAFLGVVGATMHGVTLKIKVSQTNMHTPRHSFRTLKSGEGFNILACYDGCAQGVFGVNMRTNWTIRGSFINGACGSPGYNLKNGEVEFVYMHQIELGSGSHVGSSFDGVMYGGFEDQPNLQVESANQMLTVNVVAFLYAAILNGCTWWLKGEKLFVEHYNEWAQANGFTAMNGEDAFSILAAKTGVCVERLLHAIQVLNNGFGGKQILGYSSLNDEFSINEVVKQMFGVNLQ

Row | SMILES | CLint scaled (in vitro [1]) | EC50 (SARS-CoV-1 Mpro) | EC50 [2, 5] | EC50 (229E Mpro) | Papp (in vitro [3]) | EC50 (SARS-CoV-2 Mpro) | CLint scaled (in vitro [4]) | EC50 (OC43 Mpro) | EC50 (MERS Mpro) | EC50 (OC43 virus) | EC50 (229E virus) | EC50 ([2]; Severe acute respiratory syndrome coronavirus 2, HeLa-ACE2, read-out: Antiviral CoV-2 EC50 (μM))
1 | Cc1cc(C(=O)N[C@@H]2CCN(c3c(C(=O)N4CCOCC4)cc(Br)cc3C(F)(F)F)C2)c(F)c(=O)[nH]1 [Compound 3, (R)—N-(1-(4-bromo-2-(morpholine-4-carbonyl)-6-(trifluoromethyl)phenyl)pyrrolidin-3-yl)-3-fluoro-6-methyl-2-oxo-1,2-dihydropyridine-4-carboxamide] | < 60 mL/min/kg | 0.97 nM | 0.0203 µM | 12.9 nM | 5.84 ×10⁻⁶ cm/s | 0.63 nM | < 36.7 mL/min/kg | 3.88 nM | 1.23 nM | – | – | –
2 | C[C@@H]1C[C@@H](NC(=O)c2cc(=O)[nH]c3c(F)cccc23)CN1c1c(C(=O)N2CCOCC2)cc(C#N)cc1C(F)(F)F [Compound 30] | 303 mL/min/kg | – | – | 1.25 nM | 13.3 ×10⁻⁶ cm/s | 0.42 nM | 61.7 mL/min/kg | 0.58 nM | 1.04 nM | 0.029 µM | 0.011 µM | –
3 | C[C@@H]1C[C@@H](NC(=O)c2cc(=O)[nH]c3c(F)c(F)ccc23)CN1c1c(C(=O)N2CCOCC2)cc(C#N)cc1C(F)(F)F [Compound 31] | 457 mL/min/kg | – | 0.0088 µM | 2.81 nM | 11.8 ×10⁻⁶ cm/s | 0.5 nM | 91.7 mL/min/kg | 1.77 nM | 1.94 nM | 0.141 µM | 0.073 µM | –
4 | NC(=O)c1cc(C(=O)N2CCOCC2)c(N2CC[C@@H](NC(=O)c3cc(=O)[nH]c4c(F)cccc34)C2)c(C(F)(F)F)c1 [Compound 35] | 46.7 mL/min/kg | 2.45 nM | – | 2.6 nM | 0.1 ×10⁻⁶ cm/s | 0.53 nM | < 28.3 mL/min/kg | 16.5 nM | 0.93 nM | – | – | –
5 | CN1CCN(C(=O)c2cc(Cl)cc(C(F)(F)F)c2N2CC[C@@H](NC(=O)c3cc(=O)[nH]c4c(F)cccc34)C2)CC1 [Compound 37] | 423 mL/min/kg | 1.68 nM | 0.0288 µM | 2.53 nM | 6.23 ×10⁻⁶ cm/s | 0.63 nM | 150 mL/min/kg | 1 nM | 1.22 nM | – | – | –
6 | O=C(N[C@@H]1CCN(c2c(C(=O)N3CCOCC3)cc(F)cc2C(F)(F)F)C1)c1cc(=O)[nH]c2c(F)cc(F)cc12 [Compound 38] | 625 mL/min/kg | – | – | 5.9 nM | 14.5 ×10⁻⁶ cm/s | 1.84 nM | 173 mL/min/kg | 9.11 nM | 2.39 nM | 0.327 µM | 0.142 µM | –
7 | N#Cc1cc(C(=O)N2CCOCC2)c(N2CC[C@@H](NC(=O)c3c(F)c(=O)[nH]c4c(F)cccc34)C2)c(C(F)F)c1 [Compound 39] | < 41.7 mL/min/kg | 2.56 nM | 0.0189 µM | 3.45 nM | 4.71 ×10⁻⁶ cm/s | 0.42 nM | < 25 mL/min/kg | 1.05 nM | 1.12 nM | – | – | –
8 | O=C(N[C@@H]1CCN(c2c(OC(F)F)cc(Cl)cc2C(=O)N2CCOCC2)C1)c1cc(=O)[nH]c2c(F)cccc12 [Compound 43] | 312 mL/min/kg | – | 0.0247 µM | 15 nM | 12.7 ×10⁻⁶ cm/s | 0.46 nM | 100 mL/min/kg | 3.17 nM | 1.41 nM | – | – | –
9 | Cc1cc(C(=O)N2CCOCC2)c(N2CC[C@@H](NC(=O)c3cc(=O)[nH]c4c(F)cccc34)C2)c(C2CC2)c1 [Compound 45] | 942 mL/min/kg | – | 0.0186 µM | 1.52 nM | 14.7 ×10⁻⁶ cm/s | 0.42 nM | 352 mL/min/kg | 0.51 nM | 0.7 nM | < 0.03 µM | 0.0561 µM | –
10 | O=C(N[C@@H]1CCN(c2c(C(=O)N3CCOCC3)cc(F)cc2C2CC2)C1)c1cc(=O)[nH]c2c(F)cccc12 [Compound 46] | 897 mL/min/kg | – | 0.0209 µM | 2.76 nM | 15.2 ×10⁻⁶ cm/s | 0.47 nM | 53.3 mL/min/kg | 0.81 nM | 1.75 nM | 0.049 µM | 0.073 µM | –
11 | O=C(N[C@@H]1CCN(c2c(C(=O)N3CCOCC3)cc(Br)cc2C(F)(F)F)C1)c1cc(=O)[nH]c2c(F)ccc(F)c12 [Compound 52] | 452 mL/min/kg | – | 0.009 µM | 3.58 nM | 12.6 ×10⁻⁶ cm/s | 0.43 nM | 183 mL/min/kg | 0.84 nM | 1.03 nM | – | – | –
12 | O=C(N[C@@H]1CCN(c2c(C(=O)N3CCOCC3)cc(Br)cc2C(F)F)C1)c1c(F)c(=O)[nH]c2c(F)cccc12 [Compound 54] | 257 mL/min/kg | – | 0.005 µM | 4.72 nM | 13.1 ×10⁻⁶ cm/s | 0.43 nM | 140 mL/min/kg | 0.42 nM | 1.12 nM | – | – | –
13 | O=C(N[C@@H]1CCN(c2c(C(=O)N3CCOCC3)cc(Cl)cc2C(F)(F)F)C1)c1c(F)c(=O)[nH]c2c(F)cccc12 [Compound 55] | 318 mL/min/kg | 0.56 nM | 0.0046 µM | 1.74 nM | 18.6 ×10⁻⁶ cm/s | 0.42 nM | 157 mL/min/kg | 0.42 nM | 0.84 nM | – | – | –
14 | COc1cc(F)cc2[nH]c(=O)cc(C(=O)N[C@@H]3CCN(c4c(C(=O)N5CCOCC5)cc(Br)cc4C(F)(F)F)C3)c12 [Compound 57] | 437 mL/min/kg | – | – | 0.88 nM | 4.09 ×10⁻⁶ cm/s | 0.42 nM | 125 mL/min/kg | 0.42 nM | 0.53 nM | 0.095 µM | 0.083 µM | –
15 | Cc1[nH]c(=O)cc(C(=O)N[C@@H]2CCN(c3c(C(=O)N4CCOCC4)cc(Br)cc3C(F)(F)F)C2)c1F [Compound 59] | < 68.3 mL/min/kg | – | 0.0956 µM | 20.4 nM | 8.24 ×10⁻⁶ cm/s | 1.11 nM | < 61.7 mL/min/kg | 6.09 nM | 1.01 nM | – | – | –
16 | Cc1cc(C(=O)N2CCOCC2)c(N2CC[C@@H](NC(=O)c3cc(C)[nH]c(=O)c3F)C2)c(C2CC2)c1 [Compound 60] | – | 0.74 nM | 0.18 µM | 5.14 nM | 2.95 ×10⁻⁶ cm/s | 0.48 nM | 66.7 mL/min/kg | 1.22 nM | 1.4 nM | – | – | –
17 | CN1CCN(C(=O)c2cc(Br)cc(C(F)(F)F)c2N2CC[C@@H](NC(=O)c3cc(=O)[nH]c4c(F)cccc34)C2)CC1 [Compound 63] | 722 mL/min/kg | 1.27 nM | 0.0127 µM | 1.99 nM | 5.6 ×10⁻⁶ cm/s | 0.56 nM | 357 mL/min/kg | 0.91 nM | 1.06 nM | – | – | –
18 | O=C(N[C@@H]1CCN(c2c(C(=O)N3CC4CC(C3)O4)cc(Br)cc2C(F)(F)F)C1)c1cc(=O)[nH]c2c(F)cccc12 [Compound 65] | 258 mL/min/kg | 1.86 nM | – | 2.76 nM | 16 ×10⁻⁶ cm/s | 0.42 nM | 93.3 mL/min/kg | 1.29 nM | 1.54 nM | – | – | 0.0092 µM
19 | COCCN1CCN(C(=O)c2cc(Br)cc(C(F)(F)F)c2N2CC[C@@H](NC(=O)c3cc(=O)[nH]c4c(F)cccc34)C2)CC1 [Compound 67] | 1180 mL/min/kg | 2.56 nM | – | 4.22 nM | 16.3 ×10⁻⁶ cm/s | 0.5 nM | 313 mL/min/kg | 1.52 nM | 1.5 nM | – | – | –
20 | O=C(N[C@@H]1CCN(c2c(C(=O)N3CCN4CCOCC4C3)cc(Br)cc2C(F)(F)F)C1)c1cc(=O)[nH]c2c(F)cccc12 (some centres unmarked) [Compound 71] | 358 mL/min/kg | 1.94 nM | – | 3.84 nM | 18.8 ×10⁻⁶ cm/s | 0.42 nM | 423 mL/min/kg | 0.66 nM | 0.78 nM | – | – | –
21 | O=C(N[C@@H]1CCN(c2c(C(=O)N3CC4(COC4)C3)cc(Br)cc2C(F)(F)F)C1)c1cc(=O)[nH]c2c(F)cccc12 [Compound 73] | 327 mL/min/kg | 3.84 nM | 0.0123 µM | 5.79 nM | 11.7 ×10⁻⁶ cm/s | 0.53 nM | 117 mL/min/kg | 1.13 nM | 1.69 nM | – | – | –
22 | Cc1cc(C(=O)N2CCOCC2)c(N2C[C@H](NC(=O)c3cc(=O)[nH]c4c(F)c(F)ccc34)CC2=O)c(C2CC2)c1 [Compound 75] | < 55 mL/min/kg | 0.72 nM | 0.0231 µM | 6.11 nM | 2.46 ×10⁻⁶ cm/s | 0.63 nM | < 33.3 mL/min/kg | 2.25 nM | 1.72 nM | – | – | –
23 | COc1cccc2[nH]c(=O)cc(C(=O)N[C@@H]3CCN(c4c(C5CC5)ccc(F)c4C(=O)N4CCOCC4)C3)c12 [Compound 78] | 418 mL/min/kg | – | 0.46 µM | 1.99 nM | 2.46 ×10⁻⁶ cm/s | 1.42 nM | 188 mL/min/kg | 1.45 nM | 2.31 nM | 0.0978 µM | 0.0481 µM | –

Reference: US20240158368A1, “Pyrrolidine Main Protease Inhibitors as Antiviral Agents” (AbbVie Inc., priority 2022, published 2024)
